Measurements as given in patent US20240059740A1, “CYCLIC PEPTIDES AND USES THEREOF” (PRE[…] INC., priority 2020, published 2024).
Residues, ends and D or L forms follow the SMILES beside them.

Tests used:
[1] = target: T1, recombinant MMP-2 (Homo sapiens, UniProt P08253); assay: MMP-2 Inhibitor Screening Assay Kit (colorimetric); assay type: biochemical
T1 construct: purchased ab139446
T1 sequence (P08253 110-660): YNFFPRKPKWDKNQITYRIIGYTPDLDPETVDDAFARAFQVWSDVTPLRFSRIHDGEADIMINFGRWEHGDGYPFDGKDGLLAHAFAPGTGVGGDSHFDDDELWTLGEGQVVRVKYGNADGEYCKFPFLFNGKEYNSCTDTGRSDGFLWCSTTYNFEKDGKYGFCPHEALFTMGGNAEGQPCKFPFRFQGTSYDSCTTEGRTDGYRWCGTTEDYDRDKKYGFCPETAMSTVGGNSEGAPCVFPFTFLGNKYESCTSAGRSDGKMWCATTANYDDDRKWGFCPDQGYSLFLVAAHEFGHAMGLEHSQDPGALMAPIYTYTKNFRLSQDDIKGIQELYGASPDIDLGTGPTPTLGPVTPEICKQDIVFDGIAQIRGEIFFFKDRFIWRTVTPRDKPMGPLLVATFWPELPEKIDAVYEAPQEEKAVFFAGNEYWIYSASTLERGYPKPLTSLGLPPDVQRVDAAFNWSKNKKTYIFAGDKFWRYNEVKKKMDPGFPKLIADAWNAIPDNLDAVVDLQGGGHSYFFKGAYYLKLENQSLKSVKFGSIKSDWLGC
Procedure: MMP-2 is an important target for inhibitor screening due to its involvement in cancer growth, angiogenesis, and metastasis. The MMP-2 screening assay was carried out with a commercially available MMP-2 Inhibitor Screening Assay Kit (Colorimetric, Catalog: ab139446) based on the manufacturers protocol. This assay is based on quantification of recombinant MMP-2 activity using a colorimetric assay (MMP-2 degrades a chromogenic substrate). The assay provides NNGH (N-isobutyl-N-(4-methoxyphenylsulfonyl) glycyl hydroxamic acid), a small molecule inhibitor, as a positive control (NNGH). […] Each determination was run in duplicate.
% Inhibition rate=(Vinhibitor/Vcontrol)×100
Briefly, MMP Substrate and MMP Inhibitor were warmed to room temperature to thaw DMSO. MMP Inhibitor (NNGH), MMP-2 substrate and MMP-2 enzyme were diluted with assay buffer to required concentration. 20 μL of MMP-2 enzyme and MMP-2 inhibitor (peptides, Chlorotoxin and NNGH) was added, then 50 μL of assay buffer was added and the reaction mixture incubated at 37° C. for 1 h. After incubation, 10 μL of MMP Substrate was added to start reaction. The reactions were continuously read at 412 nm in a microplate reader. Data was recorded at 1 min. time intervals for 10 to 20 min. The data as was plotted as optical density (OD) versus time for each sample. The reaction velocity (V) was obtained in OD/min: determine the slope of a line fit to the linear portion of the data plot using an appropriate routine. Then using the equation above the inhibitor % activity remaining was calculated. The control was without inhibitor.

[2] = system: U251 cells; assay: BME cell invasion assay, U251; assay type: cell-based, human; conditions: 24 h
Procedure: To assess whether the ability of SEQ ID NO.1 to inhibit MMP-2 activity and, to a lesser extent, reduce the production of matrix proteinases and downregulate the expression of EMT markers, was of functional consequence in reducing the invasiveness of the GBM cells, the ability of the peptide was tested at the concentrations of 1, 10 and 100 μM (none of which are toxic to cells) to inhibit invasion of the GBM cells through a basement membrane. This assay, described in more detail below, is an in vitro surrogate for measurement of the in vivo invasion by tumour cells of their environment.
The cell invasion assay employs a simplified Boyden chamber-like design that consists of two chambers separated by a filter (an 8 μm polycarbonate (PC) membrane) coated with basement membrane or different extracellular matrix components. The cell suspension is placed in the top chamber and incubated in the presence of test media containing specific chemo-attractants in the bottom chamber. Cells migrate from the top chamber to the bottom of the filter by degrading the coating over the filter pores. Detection of cell invasion is quantified using Calcein AM. Cell dissociation/Calcein AM solution is placed in the bottom chamber to dissociate the migrating cells from the filter. Calcein AM is internalized by the cells, and intracellular-esterases cleave the aceto-methylester (AM) moiety. Free Calcein fluoresces brightly and is used to quantitate the number of cells that have invaded or migrated by comparison with a standard curve (In Vitro Technologies Pty Ltd, (https://lifescience.invitro.com.au/brands/r-and-d-systems/).
The filter was coated with PathClear® growth factor reduced BME. The selected peptides were applied to the cells in both upper and lower wells to make sure the concentration of peptides were the same and the chemoattractant was serum at a concentration of 2% (for adherent U87 & U251 cells) or growth factor mix required in the medium (for non- adherent, 081024 oncospheres).
Cell invasion was determined using CultureCoat® 96 Well Medium BME Cell Invasion assay. Briefly, the cells were pre-starved 24 h before harvest. Then seeding 25,000 per well of cell in the upper chamber with serum free medium together different concentration of peptide. The bottom chamber also added different concentration of peptides with 2% (V/V) serum for GBM adherent cells or growth factor mix for neurosphere cells as chemoattractant. After 24 h incubation, the invading cells were measured by Calcein AM and calculated based on standard curve.
The results are shown in Table 12, the results are expressed as % inhibition.

## CC(C)C[C@@H]1NC(=O)[C@H](C)NC(=O)[C@@H](NC(=O)[C@@H]2CCCN2C(=O)[C@@H](N)CC(C)C)CSSC(C)(C)CNC(=O)CC[C@@H](C(=O)N[C@@H](CCCNC(=N)N)C(N)=O)NC(=O)[C@H](CC(=O)O)NC(=O)[C@H](CC(N)=O)NC1=O [SEQ ID NO: 1, Leu-Pro-c(SSA*-Ala-Leu-Asn-Asp-Glu)-Arg-NH2] (HELM PEPTIDE1{L.P.C.A.L.N.D.E.R.[am]}|CHEM1{[CC(C)(CN[*:2])S[*:1]]}$PEPTIDE1,CHEM1,3:R3-1:R1|PEPTIDE1,CHEM1,8:R3-1:R2$$$V2.0; N-terminus assumed)
[1]; 1 μM, 1 h preincubation at 37° C., lower value = higher inhibitory activity, read-out: % inhibition (Vinhibitor/Vcontrol ×100)
  remaining activity at 1 µM: 81%
[1]; 10 μM, lower value = higher inhibitory activity, read-out: % inhibition (Vinhibitor/Vcontrol ×100)
  remaining activity at 10 µM: 75.2%
[1]; 100 μM, lower value = higher inhibitory activity, read-out: % inhibition (Vinhibitor/Vcontrol ×100)
  remaining activity at 100 µM: 66.9%
[1]; 1 to 100 μM
  inhibition of MMP-2 activity (in words): dose dependent ability to inhibit MMP-2 activity
[2]; 1 μM
  Invasion Inhibition Index (%): 13.2%
[2]; 10 μM
  Invasion Inhibition Index (%): 17.8%
[2]; 100 μM
  Invasion Inhibition Index (%): 26.7%
